These results are taken from US20230312481A1, “SUBSTITUTED (PHTHALAZIN-1-YLMETHYL)UREAS, SUBSTITUTED N-(PHTHALAZIN-1-YLMETHYL)AMIDES, AND ANALOGUES THEREOF” (priority 2020, published 2023).

The test deals with HBV rcDNA in HepDE19 cells. Description: HepDE19 assay with bDNA quantitation of HBV rcDNA. In kind it is cell-based, hepatitis B virus. To be noted: Hepatitis B virus, HepDE19, 168 h, read-out: DE-19bDNA EC50. A digest of the protocol:
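HepDE19 cells were induced by tetracycline withdrawal, then treated with compounds (0.5% DMSO final) for 7 days at 37 °C. HBV rcDNA measured by bDNA assay with HBV-specific probes. Viability assessed on replicate plates (5,000 cells/well, 4 days) by CellTiter-Glo ATP content.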

The structures appear in SMILES notation. Like-named read-outs stand apart in the source and are kept apart here.

By EC50 is commonly meant the concentration giving half of the maximal effect. In the case of `C[C@H](c1n[nH]c(=O)c2cc(F)c(F)cc12)N(C)C(=O)c1cc2c(F)c(F)ccc2[nH]1` [Compound 57, (R)-N-(1-(6,7-difluoro-4-oxo-3,4-dihydrophthalazin-1-yl)ethyl)-4,5-difluoro-N-methyl-1H-indole-2-carboxamide], the EC50 amounted to 12 nM.

For `C[C@H](c1n[nH]c(=O)c2cc(F)c(F)cc12)N(C)C(=O)c1cc2c([nH]1)CCCC2` [Compound 58, (R)-N-(1-(6,7-difluoro-4-oxo-3,4-dihydrophthalazin-1-yl)ethyl)-N-methyl-4,5,6,7-tetrahydro-1H-indole-2-carboxamide], the EC50 was 120 nM.

As to `CC(c1n[nH]c(=O)c2cc(F)c(F)cc12)N(C)C(=O)[C@@H]1Cc2ccccc2N1` (stereo partly drawn) [Compound 78, (2S)-N-(1-(6,7-difluoro-4-oxo-3,4-dihydrophthalazin-1-yl)ethyl)-N-methylindoline-2-carboxamide], the EC50 (HepDE19 cells, 7 day incubation, rcDNA measured by Quantigene 2.0 bDNA assay, top concentration 25 µM) is 3640 nM.

With `C[C@H](c1n[nH]c(=O)c2cc(F)c(F)cc12)N(C)C(=O)c1cc2sc(Cl)cc2[nH]1` [Compound 79, (R)-2-chloro-N-(1-(6,7-difluoro-4-oxo-3,4-dihydrophthalazin-1-yl)ethyl)-N-methyl-4H-thieno[3,2-b]pyrrole-5-carboxamide], the EC50 was 30 nM.
